{
  "source": "ChEMBL document CHEMBL4368883",
  "about": "“Identification of the first enantiopure Rac1-Tiam1 protein-protein interaction inhibitor and its optimized synthesis via phosphine free remote group directed hydroarylation” (Medchemcomm, 2019)",
  "key": {"[1]": {"target": "T1, Ras-related C3 botulinum toxin substrate 1/T-lymphoma invasion and metastasis-inducing protein 1 (Homo sapiens) (UniProt P63000+Q13009)", "assay": "Inhibition of Rac1-Tiam1 protein-protein interaction in human A617 cells assessed as reduction in intracellular Rac1-GTP levels at 10 uM after 4 hrs by G-LISA assay relative to control", "type": "cell-based"}, "[2]": {"target": "T1, Ras-related C3 botulinum toxin substrate 1/T-lymphoma invasion and metastasis-inducing protein 1 (Homo sapiens)", "assay": "Inhibition of Rac1-Tiam1 protein-protein interaction in human A617 cells assessed as reduction in intracellular Rac1-GTP levels at 1 to 10 uM after 4 hrs by G-LISA assay", "type": "cell-based"}},
  "note": "Activity calls are given as the source filed them. The rule behind the calls is not given here.",
  "data": [
    {"smiles": "CCOC(=O)C1(N)C2CC(CC2c2cccc(Nc3ccc(N)cc3)c2)C1Sc1ccccc1", "note": "(racemic)", "values": [
      {"measurement": "inhibition", "setting": "[1]", "result": 17.2, "unit": "%"},
      {"measurement": "inhibition", "setting": "[2]", "result": "inactive"}
    ]}
  ]
}
